Results published in US20110152313A1 (MACQUARIE UNIVERSITY, priority 2008, published 2011).

Columns and labels:
CAMK2G = CAMK2G (Homo sapiens, UniProt Q13555); experiment: kinase binding screen (kinase-tagged T7 phage, qPCR), % Ctrl
How it was run: (§1)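 Competition binding: kinase-tagged T7 phage (grown in BL21-derived E. coli, lysed at 32° C) incubated with immobilized ligand on biotin-blocked beads plus test compound; bound kinase in eluates quantified by qPCR. Compounds tested at a single set concentration, added from 40× DMSO stocks.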

YSK4 = biological target: T1, YSK4 (Homo sapiens, UniProt Q56UN5); experiment: as above
T1 sequence (Q56UN5 1-1328): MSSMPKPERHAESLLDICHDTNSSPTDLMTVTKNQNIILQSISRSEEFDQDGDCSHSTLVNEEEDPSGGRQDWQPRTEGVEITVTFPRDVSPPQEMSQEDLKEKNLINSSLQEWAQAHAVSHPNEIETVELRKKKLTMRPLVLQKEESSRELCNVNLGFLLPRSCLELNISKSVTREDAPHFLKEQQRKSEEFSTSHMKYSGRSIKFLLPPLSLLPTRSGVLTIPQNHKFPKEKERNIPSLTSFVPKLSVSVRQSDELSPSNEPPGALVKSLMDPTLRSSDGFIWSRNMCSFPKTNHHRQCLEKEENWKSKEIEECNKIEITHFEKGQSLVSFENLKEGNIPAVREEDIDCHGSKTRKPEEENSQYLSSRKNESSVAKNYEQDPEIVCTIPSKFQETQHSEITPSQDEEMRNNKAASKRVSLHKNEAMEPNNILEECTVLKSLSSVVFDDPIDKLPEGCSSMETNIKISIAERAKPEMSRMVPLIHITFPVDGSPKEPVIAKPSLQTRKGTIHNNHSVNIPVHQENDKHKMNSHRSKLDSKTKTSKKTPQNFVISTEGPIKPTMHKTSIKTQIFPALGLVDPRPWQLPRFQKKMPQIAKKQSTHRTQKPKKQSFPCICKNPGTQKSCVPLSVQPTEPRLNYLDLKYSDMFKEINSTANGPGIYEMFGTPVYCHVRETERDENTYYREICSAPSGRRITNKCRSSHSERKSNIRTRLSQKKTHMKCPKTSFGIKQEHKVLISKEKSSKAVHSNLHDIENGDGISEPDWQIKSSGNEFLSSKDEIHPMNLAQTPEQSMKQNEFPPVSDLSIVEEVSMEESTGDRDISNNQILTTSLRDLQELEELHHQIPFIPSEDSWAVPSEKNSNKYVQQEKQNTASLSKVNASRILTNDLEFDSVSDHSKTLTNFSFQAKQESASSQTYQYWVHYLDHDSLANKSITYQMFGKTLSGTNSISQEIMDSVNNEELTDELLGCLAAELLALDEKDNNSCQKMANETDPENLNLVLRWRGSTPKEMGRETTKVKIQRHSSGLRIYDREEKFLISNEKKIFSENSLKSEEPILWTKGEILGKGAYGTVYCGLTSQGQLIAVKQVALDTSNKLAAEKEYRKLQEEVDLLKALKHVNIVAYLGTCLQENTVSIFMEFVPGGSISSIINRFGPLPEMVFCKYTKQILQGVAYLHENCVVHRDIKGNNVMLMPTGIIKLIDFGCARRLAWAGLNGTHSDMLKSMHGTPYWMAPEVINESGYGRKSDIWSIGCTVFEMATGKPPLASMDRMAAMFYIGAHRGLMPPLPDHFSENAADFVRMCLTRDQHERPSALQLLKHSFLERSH
How it was run: as §1

CAMK2D = CAMK2D (Homo sapiens, UniProt Q13557); experiment: as above
How it was run: as §1

SBK1 = SBK1 (Homo sapiens, UniProt Q52WX2); experiment: as above
How it was run: as §1

CAMKK1 = CAMKK1 (Homo sapiens, UniProt Q8N5S9); experiment: as above
How it was run: as §1

CAMK2A = CAMK2A (Homo sapiens, UniProt Q9UQM7); experiment: as above
How it was run: as §1

BMPR1B = BMPR1B (Homo sapiens, UniProt O00238); experiment: as above
How it was run: as §1

DYRK1A = DYRK1A (Homo sapiens, UniProt Q13627); experiment: kinase binding constant, 11-point dose response (T7 phage, qPCR); conditions: >30 = no inhibition at highest concentration tested
Method: Kinase inhibition studies were performed by methods well known in the prior art (Fabian, M. A. et al. Nat. Biotechnol. 2005, 23, 329). Briefly, kinase-tagged T7 phage strains were prepared in an E. coli host derived from the BL21 strain. E. coli were grown to log-phase and infected with T7 phage and incubated with shaking at 32° C. until lysis. The lysates were centrifuged and filtered to remove cell debris. […] The liganded beads were blocked with excess biotin and washed with blocking buffer (SeaBlock (Pierce); 1% BSA, 0.05% Tween 20, 1 mM DTT) to remove unbound ligand and to reduce non-specific binding. […] All reactions were performed in polystyrene 96-well plates in a final volume of 0.135 ml. […] The kinase concentration in the eluates was measured by qPCR.
An 11-point 3-fold serial dilution of each test compound (from 30 μM to 0.5 nM) was prepared in 100% DMSO at 100× final test concentration and subsequently diluted to 1× in the assay (final DMSO concentration=1%). Binding constants (KDS) were calculated with a standard dose-response curve using a 5-point sigmoidal (Hill) equation.

SBK1, sequence (Q52WX2 whole entry): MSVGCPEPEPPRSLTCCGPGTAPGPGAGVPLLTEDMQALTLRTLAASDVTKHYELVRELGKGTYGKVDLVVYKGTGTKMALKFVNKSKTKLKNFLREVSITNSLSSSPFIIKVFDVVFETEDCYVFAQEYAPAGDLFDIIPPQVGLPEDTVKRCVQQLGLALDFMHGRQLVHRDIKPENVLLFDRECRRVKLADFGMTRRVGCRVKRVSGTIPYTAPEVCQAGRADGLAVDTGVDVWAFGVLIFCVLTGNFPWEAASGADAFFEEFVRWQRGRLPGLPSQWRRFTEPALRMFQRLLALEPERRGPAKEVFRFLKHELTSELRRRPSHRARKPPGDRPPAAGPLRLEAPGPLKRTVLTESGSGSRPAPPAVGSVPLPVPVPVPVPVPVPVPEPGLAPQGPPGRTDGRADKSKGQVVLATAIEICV
CAMK2A, sequence (Q9UQM7 whole entry): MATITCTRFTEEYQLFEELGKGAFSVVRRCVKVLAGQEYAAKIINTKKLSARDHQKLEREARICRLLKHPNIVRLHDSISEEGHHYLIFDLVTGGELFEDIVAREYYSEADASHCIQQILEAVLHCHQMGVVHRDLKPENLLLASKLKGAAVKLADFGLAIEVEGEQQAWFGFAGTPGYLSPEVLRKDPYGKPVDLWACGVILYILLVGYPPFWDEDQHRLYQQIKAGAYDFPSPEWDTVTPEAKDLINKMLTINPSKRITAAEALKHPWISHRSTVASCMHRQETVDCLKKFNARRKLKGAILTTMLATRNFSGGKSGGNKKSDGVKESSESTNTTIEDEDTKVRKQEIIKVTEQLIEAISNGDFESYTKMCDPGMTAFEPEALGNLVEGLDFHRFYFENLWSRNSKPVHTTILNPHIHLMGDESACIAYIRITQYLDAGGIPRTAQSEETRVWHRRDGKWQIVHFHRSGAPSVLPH
CAMK2G, sequence (Q13555 whole entry): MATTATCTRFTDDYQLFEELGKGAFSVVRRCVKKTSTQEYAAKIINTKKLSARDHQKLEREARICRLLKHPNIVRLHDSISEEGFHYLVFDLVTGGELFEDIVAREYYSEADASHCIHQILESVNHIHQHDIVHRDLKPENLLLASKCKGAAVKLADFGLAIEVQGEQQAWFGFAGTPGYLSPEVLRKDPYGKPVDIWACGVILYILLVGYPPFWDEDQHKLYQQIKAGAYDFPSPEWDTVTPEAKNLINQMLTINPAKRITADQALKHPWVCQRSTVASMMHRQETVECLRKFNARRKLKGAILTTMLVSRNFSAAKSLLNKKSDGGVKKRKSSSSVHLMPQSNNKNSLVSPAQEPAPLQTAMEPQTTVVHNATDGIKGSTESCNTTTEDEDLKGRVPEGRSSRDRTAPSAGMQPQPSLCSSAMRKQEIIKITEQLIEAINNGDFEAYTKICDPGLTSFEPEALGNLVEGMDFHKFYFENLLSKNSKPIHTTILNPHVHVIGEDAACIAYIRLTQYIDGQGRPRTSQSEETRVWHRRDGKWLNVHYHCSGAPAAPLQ
CAMK2D, sequence (Q13557 whole entry): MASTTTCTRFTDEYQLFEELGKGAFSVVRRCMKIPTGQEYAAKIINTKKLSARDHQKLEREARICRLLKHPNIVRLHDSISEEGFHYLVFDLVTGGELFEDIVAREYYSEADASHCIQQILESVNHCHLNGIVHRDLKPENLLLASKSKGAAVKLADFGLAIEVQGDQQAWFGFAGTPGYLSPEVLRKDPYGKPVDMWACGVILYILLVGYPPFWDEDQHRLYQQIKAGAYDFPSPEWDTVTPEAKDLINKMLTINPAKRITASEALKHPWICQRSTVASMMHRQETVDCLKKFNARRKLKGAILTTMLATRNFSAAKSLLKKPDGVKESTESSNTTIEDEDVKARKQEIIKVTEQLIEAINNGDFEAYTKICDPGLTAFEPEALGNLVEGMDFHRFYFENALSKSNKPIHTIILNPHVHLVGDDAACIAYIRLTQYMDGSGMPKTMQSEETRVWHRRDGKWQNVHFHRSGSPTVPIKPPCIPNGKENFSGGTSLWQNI
CAMKK1, sequence (Q8N5S9 whole entry): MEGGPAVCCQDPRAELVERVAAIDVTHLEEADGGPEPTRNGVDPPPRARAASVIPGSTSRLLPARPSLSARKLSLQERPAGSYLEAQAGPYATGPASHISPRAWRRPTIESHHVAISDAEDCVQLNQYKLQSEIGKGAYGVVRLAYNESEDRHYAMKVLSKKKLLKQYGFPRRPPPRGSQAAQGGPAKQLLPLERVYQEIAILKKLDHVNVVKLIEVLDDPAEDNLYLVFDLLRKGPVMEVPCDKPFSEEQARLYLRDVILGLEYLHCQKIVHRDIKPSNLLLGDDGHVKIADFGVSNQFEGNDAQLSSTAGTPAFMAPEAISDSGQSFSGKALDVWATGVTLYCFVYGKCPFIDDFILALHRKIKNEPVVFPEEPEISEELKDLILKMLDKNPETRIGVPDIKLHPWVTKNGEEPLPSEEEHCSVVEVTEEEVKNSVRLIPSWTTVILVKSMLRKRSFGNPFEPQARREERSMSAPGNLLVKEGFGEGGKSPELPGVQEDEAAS
BMPR1B, sequence (O00238 14-502): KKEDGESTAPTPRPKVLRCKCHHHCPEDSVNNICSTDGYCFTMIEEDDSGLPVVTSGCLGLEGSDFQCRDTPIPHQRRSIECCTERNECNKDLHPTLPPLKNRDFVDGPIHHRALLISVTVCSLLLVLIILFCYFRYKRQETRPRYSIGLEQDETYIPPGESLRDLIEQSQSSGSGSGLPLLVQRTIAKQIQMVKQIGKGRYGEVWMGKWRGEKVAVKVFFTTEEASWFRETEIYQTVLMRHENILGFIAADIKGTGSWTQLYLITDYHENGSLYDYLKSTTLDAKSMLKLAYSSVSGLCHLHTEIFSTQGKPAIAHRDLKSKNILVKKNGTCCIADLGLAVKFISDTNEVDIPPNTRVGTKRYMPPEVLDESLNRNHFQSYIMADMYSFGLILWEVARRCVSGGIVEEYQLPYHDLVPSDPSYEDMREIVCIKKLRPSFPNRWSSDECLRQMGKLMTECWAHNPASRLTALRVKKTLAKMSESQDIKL

| remaining activity at 10 µM (CAMK2G; 10 μM) [%] | remaining activity at 10 µM (YSK4; 10 μM) [%] | remaining activity at 10 µM (CAMK2D; 10 μM) [%] | remaining activity at 10 µM (SBK1; 10 μM) [%] | remaining activity at 10 µM (CAMKK1; 10 μM) [%] | remaining activity at 10 µM (CAMK2A; 10 μM) [%] | remaining activity at 10 µM (BMPR1B; 10 μM) [%] | Compound | remaining activity at 1 µM (CAMK2G) [%] | remaining activity at 1 µM (YSK4) [%] | remaining activity at 1 µM (CAMK2D) [%] | remaining activity at 1 µM (SBK1) [%] | remaining activity at 1 µM (CAMKK1) [%] | remaining activity at 1 µM (CAMK2A) [%] | remaining activity at 1 µM (BMPR1B) [%] | Kd (DYRK1A) [nM] |
| --- | --- | --- | --- | --- | --- | --- | --- | --- | --- | --- | --- | --- | --- | --- | --- |
| 78 | 5.1 | 82 | 77 | 100 | 97 | 78 | Nc1nc2c(-c3cc(Br)c(Br)[nH]3)nccc2[nH]1 [Ageladine A, ageladine A, reference compound] | 100 | 56 | 100 | 87 | 92 | 100 | 100 | – |
| – | – | – | – | – | – | – | Nc1nc2c(-c3ccccn3)nccc2[nH]1 [drawing 35, 4-(pyrid-2-yl)-1H-imidazo[4,5-c]pyridin-2-amine] | 20 | 16 | 41 | 53 | 19 | 100 | 85 | 290 |
| – | – | – | – | – | – | – | Nc1nc2c(-c3cnc4ccccc4c3)nccc2[nH]1 [drawing 36, 4-(quinolin-3-yl)-1H-imidazo[4,5-c]pyridin-2-amine] | 100 | 82 | 100 | 100 | 100 | 100 | 0 | 300 |
